Reference: patent publication US20180207294A1, “NON-ALCOHOLIC FATTY LIVER REGULATING FACTOR 14-3-3 PROTEIN” (Korea University Research and Business Foundation, priority 2015, published 2018)

How the values were obtained:
[1] = test system: primary mouse hepatocytes; test: PPARγ2 target gene mRNA (real-time PCR) with 14-3-3 overexpression and oleic acid, primary mouse hepatocytes; format: cell-based; conditions: 14-3-3 overexpression, oleic acid, FIG. 7B
Protocol: HepG2 cells were seeded in a 6-well plate at a density of 4×10^5 cells per each well, and then transfected with GFP-14-3-3β DNA (4 μg) or GFP-14-3-3γ DNA (4 μg) using an E-fection plus reagent (Lugen). A ratio of DNA to the E-fection plus reagent was 1:2, and this method was performed according to a manufacturer's manual. After transfection, the cells were treated with 200 μM of oleic acid (OA) for 72 hours, and for mRNA extraction, the corresponding cells were lysed with 1 ml/well of TRIzol (Invitrogen), 200 μl of chloroform was added thereto and mixed well, the resultant cells were maintained at room temperature for 5 minutes and then centrifuged at 12,000×g and 4° C. for 15 minutes, the obtained supernatant was mixed with 500 μl of isopropanol and then put on ice for 10 minutes, and the resulting supernatant was centrifuged at 12,000×g and 4° C. for 15 minutes to remove a supernatant, and then pellets were dissolved with tertiary distilled water treated with diethyl pyrocarbonate (DEPC). 2 μg of mRNA was synthesized into cDNA using a Superscript First Strand cDNA Synthesis Kit (Bioneer, Daejeon, South Korea) and the synthesized cDNA as a template was amplified through polymerase chain reaction (PCR) using primers specific to PPARγ2 (SEQ ID NOS: 1 and 2), 14-3-3β (SEQ ID NOS: 3 and 4), 14-3-3γ (SEQ ID NOS: 5 and 6), SREBP-1c, FAT/CD36, and β-actin of humans, and was amplified through real-time PCR using primers specific to SREBP-1c, FAT/CD36, and GAPDH of mice. β-actin and GAPDH were used as controls to see whether mRNAs of the respective cells were compared in the same amount.

[2] = target: T1, PPARγ2 S273A mutant (Homo sapiens, UniProt P37231, S273A); test: aP2 promoter luciferase assay with PPARγ2 S273A mutant (HEK-293T); format: cell-based; conditions: FIG. 4C, 4D
T1 construct: expressed in transfected cells; host or cells: HEK-293T
T1 sequence (P37231 1-505 S273A): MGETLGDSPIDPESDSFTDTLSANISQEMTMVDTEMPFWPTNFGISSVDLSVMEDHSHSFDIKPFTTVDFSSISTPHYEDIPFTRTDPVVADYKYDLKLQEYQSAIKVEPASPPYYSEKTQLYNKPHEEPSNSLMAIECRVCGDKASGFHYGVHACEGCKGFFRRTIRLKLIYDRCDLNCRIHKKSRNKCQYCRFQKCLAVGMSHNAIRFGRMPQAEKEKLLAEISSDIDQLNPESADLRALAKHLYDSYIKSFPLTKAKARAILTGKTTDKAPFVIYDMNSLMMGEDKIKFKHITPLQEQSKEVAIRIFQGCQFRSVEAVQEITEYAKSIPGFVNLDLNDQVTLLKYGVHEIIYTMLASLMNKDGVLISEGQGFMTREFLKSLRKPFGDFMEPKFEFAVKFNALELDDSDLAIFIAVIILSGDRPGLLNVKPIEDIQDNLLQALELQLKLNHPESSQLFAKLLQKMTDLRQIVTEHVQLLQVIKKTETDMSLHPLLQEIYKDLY
Protocol: In addition, HEK-293T cells were seeded in a 12-well plate at a density of 1×10^5 cells per each well, and then transfected with an aP2 promoter construct (0.5 μg), Flag-PPARγ2 (S112A) DNA (0.5 μg) or Flag-PPARγ2 (S273A) DNA (0.5 μg), and mGST-14-3-3β DNA (0.5 μg) or mGST-14-3-3γ DNA (0.5 μg) using an E-fection plus reagent (Lugen). A ratio of DNA to the E-fection plus reagent was 1:2, and this method was performed according to a manufacturer's manual. The corresponding cells were washed with ice-cold PBS, and lysed using 80 μl/well of a reporter lysis buffer (Promega, Madison, Wis.), and the lysed cells were centrifuged at 10,000×g and 4° C. for 10 minutes to collect a supernatant, and luciferase activity was measured. As an instrument, Luminometer 20/20n (Turner Biosystems, Sunnyvale, Calif.) was used. For normalization, the cells were cotransfected with pSV40β-galactosidase. For the collected supernatant, β-galactosidase activity was measured and the luciferase activity was revised, and the obtained values were plotted. At this time, a β-galactosidase enzyme analysis system (Promega, Madison, Wis.) was used, and analysis was performed using a DU530 spectrophotometer (Beckman Instruments, Palo Alto, Calif.).

[3] = target: T1, PPARγ2 S273A mutant; test: GST-pull down assay with PPARγ2 S112A and S273A mutants (HEK-293T); format: binding; conditions: FIG. 4A, 4B
Protocol: 14-3-3 proteins are known to bind to phosphorylated residues of a target protein. Phosphorylated residues associated with the activity of PPARγ2 are known to be serine 112 and serine 273. Thus, PPARγ2 mutants (PPARγ2 S112A and S273A) with non-phosphorylated serine 112 and serine 273 residues were produced and binding thereof with 14-3-3 proteins was verified through GST-pull down assay.
HEK-293T cells were seeded in a 100 mm plate at a density of 2×10^6 cells per each well, and then transfected with Flag-PPARγ2 (WT) DNA (4 μg), Flag-PPARγ2 (S112A) DNA (4 μg), Flag-PPARγ2(S273A) DNA (4 μg), and mGST-14-3-3β (4 μg) or mGST-14-3-3γ (4 μg) using an E-fection plus reagent (Lugen). As for Flag-PPARγ2 (S112A) DNA and Flag-PPARγ2 (S273A) DNA, DNA fragments amplified through polymerase chain reaction (PCR) were cloned into a Flag-tagged vector. A ratio of DNA to the E-fection plus reagent was 1:2, and this method was performed according to a manufacturer's manual. The corresponding cells were washed with ice-cold PBS and lysed using 500 μl/well of a lysis buffer (150 mM NaCl, 1 mM EDTA, 1% Nonidet P-40, 5% glycerol, 25 mM tris-HCl, pH 7.5, protease inhibitor added), and the lysed cells were centrifuged at 10,000×g and 4° C. for 10 minutes to extract proteins. […]

14-3-3β: 14-3-3 isoform protein, overexpressed by DNA transfection; regulating factor that increases transcriptional activity of PPARγ2
mRNA expression of FAT/CD36 [1]: further increased | mRNA expression of SREBP-1c [1]: further increased | change in transcriptional activity of PPARγ2 S273A mutant on 14-3-3 overexpression [2]: no change | binding with PPARγ2 S273A mutant [3]: suppressed

14-3-3γ: 14-3-3 isoform protein, overexpressed by DNA transfection; regulating factor that decreases transcriptional activity of PPARγ2
mRNA expression of FAT/CD36 [1]: reduced | mRNA expression of SREBP-1c [1]: reduced | change in transcriptional activity of PPARγ2 S273A mutant on 14-3-3 overexpression [2]: no change | binding with PPARγ2 S273A mutant [3]: suppressed
